In publication PMC6835510, “Magnificamide, a β-Defensin-Like Peptide from the Mucus of the Sea Anemone Heteractis magnifica, Is a Strong Inhibitor of Mammalian α-Amylases” (Marine Drugs, 2019):
Bridge positions count the residues as written; N and C are the ends. Ends that are not written are not given here.

Key:
BgNav1 = assay: Two-electrode voltage-clamp; type: cell-based, Blattella germanica; conditions: 10 µM; insect channel; Xenopus laevis oocytes; 18–22 °C
Text: (§1) For the expression of Nav channels (mammalian rNav1.2, rNav1.4, hNav1.5, mNav1.6 and hNav1.8 channels; the insect channel BgNav1 from Blattella germanica; and the auxiliary subunits rβ1, hβ1, and TipE) and Kv channels (mammalian rKv1.1, rKv1.2, hKv1.3, rKv1.4, rKv1.5, rKv1.6, rKv2.1, hKv3.1, rKv4.2, hKv10.1, and hERG; and Drosophila Shaker’s IR) in Xenopus laevis oocytes; the linearized plasmids were transcribed using the T7 or SP6 mMESSAGE-mMACHINE transcription kit (Ambion, Carlsbad, CA, USA). The harvesting of stage V–VI oocytes from anesthetized female Xenopus laevis frog was previously described. Oocytes were injected with 50 nL of cRNA at a concentration of 1 ng/nL using a microinjector (Drummond Scientific, Broomall, PA, USA). The oocytes were incubated in a solution containing 96-mM NaCl, 2-mM KCl, 1.8-mM CaCl2, 2-mM MgCl2, and 5-mM HEPES (pH 7.4), supplemented with 50 mg/L gentamycin sulfate.
Two-electrode voltage-clamp recordings were performed at room temperature (18–22 °C) using a Geneclamp 500 amplifier (Molecular Devices, Downingtown, PA, USA) controlled by a pClamp data acquisition system (Axon Instruments, Union City, CA, USA). Whole cell currents from oocytes were recorded 1–4 days after injection. […] All data were analyzed using pClamp Clampfit 10.0 (Molecular Devices, Downingtown, PA, USA) and Origin 7.5 software (Originlab, Northampton, MA, USA).

[1] = test system: fungi, Gram-positive or Gram-negative bacteria; assay: Antimicrobial screening, overall; type: cell-based; conditions: 1, 5, 10, 20 µM
Procedure: (§2) The antimicrobial activity of r-magnificamide was tested against Gram-positive (Staphylococcus aureus ATCC 21027 and Bacillus subtilis ATCC6633), Gram-negative bacteria (Escherichia coli VKPM B-7935 and Pseudomonas aeruginosa ATCC 27853), and the fungus Candida albicans KMM 455 by the agar dilution method. Microbial strains were taken from the American Type Culture Collection (ATCC), Russian National Collection of Industrial Microorganisms (VKPM), and Collection of Marine Microorganisms (KMM) (Pacific Institute of Bioorganic Chemistry FEB RAS). To obtain a microbial lawn, 0.1 mL of a cell suspension (0.5 × 10^8 cells/mL) was uniformly distributed on agar surface in Petri dishes (15 g/L tryptic soy broth, 2 g/L bacto yeast extract, 1 g/L glucose, and 20 g/L agar for bacteria; for fungi 10 g/L of glucose was added). Wells with a diameter of 6 mm were punched into the agar and filled with 100 µL of the peptide solution at concentrations 1, 5, 10, and 20 µM. The plates were then incubated for 18 h at 37 °C for bacteria, and at 30 °C for the fungus. Minimum inhibitory concentration was determined by measuring the clear zone of inhibition around each well. All assays were performed independently three times.

[2] = test system: 18 subtypes of voltage-gated potassium and voltage-gated sodium channels; assay: Electrophysiological screening, overall; type: cell-based; conditions: 10 µM, Xenopus laevis oocytes
Text: as §1
Two-electrode voltage-clamp recordings were performed at room temperature (18–22 °C) using a Geneclamp 500 amplifier (Molecular Devices, Downingtown, PA, USA) controlled by a pClamp data acquisition system (Axon Instruments, Union City, CA, USA). Whole cell currents from oocytes were recorded 1–4 days after injection. The bath solution’s composition was 96-mM NaCl, 2-mM KCl, 1.8-mM CaCl2, 2-mM MgCl2, and 5-mM HEPES (pH 7.4). Toxins were applied directly to the bath. Resistances of both electrodes were kept between 0.8 and 1.5 MΩ. The elicited currents were sampled at 20 kHz (Nav) or 2 kHz (Kv), filtered at 2 kHz (Nav) or 0.5 kHz (Kv) using a four-pole low-pass Bessel filter. Leak subtraction was performed using a -P/4 protocol. […] For the electrophysiological analysis, a number of protocols were applied from a holding potential of −90 mV with a start-to-start interval of 0.2 Hz. Kv1.1–Kv1.6 and Shaker currents were evoked by 250-ms depolarizations to 0 mV followed by a 250 ms pulse to −50 mV from a holding potential of −90 mV. […] All data were analyzed using pClamp Clampfit 10.0 (Molecular Devices, Downingtown, PA, USA) and Origin 7.5 software (Originlab, Northampton, MA, USA).

Candida albicans KMM 455 = assay: Antimicrobial activity, agar dilution method; type: cell-based; conditions: 1, 5, 10, 20 µM; 100 µL in 6 mm agar wells; 18 h, 30 °C; clear zone; three independent assays
Procedure: as §2

[3] = test system: Staphylococcus aureus ATCC 21027; assay: Antimicrobial activity, agar dilution method; type: cell-based; conditions: 1, 5, 10, 20 µM; 100 µL in 6 mm agar wells; 18 h, 37 °C; clear zone; three independent assays
Procedure: as §2

[4] = test system: Bacillus subtilis ATCC6633; assay: Antimicrobial activity, agar dilution method; type: cell-based; conditions: 1, 5, 10, 20 µM; 100 µL in 6 mm agar wells; 18 h, 37 °C; clear zone; three independent assays
Procedure: as §2

[5] = test system: Pseudomonas aeruginosa ATCC 27853; assay: Antimicrobial activity, agar dilution method; type: cell-based; conditions: 1, 5, 10, 20 µM; 100 µL in 6 mm agar wells; 18 h, 37 °C; clear zone; three independent assays
Procedure: as §2

[6] = test system: Escherichia coli VKPM B-7935; assay: Antimicrobial activity, agar dilution method; type: cell-based; conditions: 1, 5, 10, 20 µM; 100 µL in 6 mm agar wells; 18 h, 37 °C; clear zone; three independent assays
Procedure: as §2

[7] = listed as recombinant analog of magnificamide

SEGTSCYIYHGVYGICKAKCAEDMKAMAGMGVCEGDLCCYKTPW (disulfide 6-38, 16-33, 20-39) [r-magnificamide]
Channel modulating activity, BgNav1 (BgNav1): Not active
Antimicrobial activity, overall [1]: did not reveal activity against fungi, Gram-positive or Gram-negative bacteria
Antimicrobial activity, overall [1, 7]: does not show antimicrobial or channel modulating activities
Ion channel modulating activity, overall ([2]; listed as r-Magnificamide): did not reveal ion channel modulating activity
Ion channel modulating activity, overall [2, 7]: does not show antimicrobial or channel modulating activities
Antimicrobial activity, C. albicans (Candida albicans KMM 455): Not active
Antimicrobial activity, S. aureus [3]: Not active
Antimicrobial activity, B. subtilis [4]: Not active
Antimicrobial activity, P. aeruginosa [5]: Not active
Antimicrobial activity, E. coli [6]: Not active
